Test results reported in publication PMC8126888 (RSC Medicinal Chemistry, 2020).
Where two headings read alike, the source gives them in different places.

Legend:
[1] = tested on: Trypanosoma cruzi, Tulahuen CL2, beta-galactosidase strain; test: microbe, parasite or virus in culture
[2] = tested on: primary peritoneal mouse macrophages (PMM); test: cells; conditions: Macrophage
[3] = tested on: Leishmania infantum MHOM/MA(BE)/67/ITMAP263 intracellular amastigotes; test: microbe, parasite or virus in culture; conditions: Macrophage, in Mus musculus
[4] = in vitro; conditions: human, microsomes, intrinsic in vitro clearance, liver microsomes
[5] = physchem; conditions: HPLC, Ascentis Express RP Amide column
[6] = in vitro; conditions: mouse, microsomes, pH 7.4, Microsome Clint Mouse, intrinsic in vitro clearance, liver microsomes
[7] = in vitro; conditions: human
[8] = read-out: PMM pIC50 (converted)
[9] = read-out: L. inf. pIC50, intracellular amastigotes in PMM (converted), geometric mean of a minimum of two experiments ± standard error
[10] = pH 7.4, elog D, HPLC measured log D, pH 7.4
[11] = read-out: L. Inf. pIC50 (converted)
[12] = read-out: L. infantum MHOM/MA(BE)/67/ITMAP263 intracellular amastigotes IC50
[13] = MRC5, read-out: T. cruzi Tulahuen C4 (LacZ) IC50
[14] = read-out: L. Inf. pIC50, from L. infantum intracellular amastigote IC50 (converted)
[15] = read-out: L. infantum MHOM/MA(BE)/67/ITMAP263 intracellular amastigotes IC50, intracellular amastigotes
[16] = read-out: L. infantum MHOM/MA(BE)/67/ITMAP263 intracellular amastigotes IC50 (uM), intracellular amastigotes
[17] = MRC5, read-out: T. cruzi Tulahuen C4 (LacZ) IC50 (uM)

| Structure (SMILES) | IC50 ([2]; read-out: PMM IC50) | CC50 at 3 days [7] | IC50 [3, 11] | IC50 [3, 12] | IC50 [1, 13] | other results |
| --- | --- | --- | --- | --- | --- | --- |
| O=C(Cn1ccnc1[N+](=O)[O-])NCc1ccccc1 [Benznidazole, reference compound] | – | – | – | – | – | IC50 ([1]; MRC5, […], reference drug, T. cruzi, 7 days): 2 to 5 µM |
| COc1ccccc1S(=O)(=O)N(Cc1ccccc1)Cc1ccccc1 [Compound 10] | – | – | – | – | – | IC50 [2, 8]: > 64.6 µM; IC50 [3, 9]: 0.331 µM |
| O=S(=O)(c1cc(F)ccc1F)N(Cc1ccc(F)cc1)Cc1ccc(F)cc1 [Compound 12] | – | – | – | – | – | IC50 [2, 8]: > 64.6 µM; IC50 [3, 9]: > 64.6 µM |
| N#Cc1ccccc1S(=O)(=O)N(Cc1ccccc1)Cc1ccccc1 [Compound 13] | – | – | – | – | – | IC50 [2, 8]: > 64.6 µM; microsomal CLint at 0.5 h, 0.5 µM ([4]; pH 7.4, Microsome Clint Human): 699 µL/min/mg; chromatographic logD [5, 10]: 4.3; IC50 [3, 9]: 11.2 µM |
| COc1ccc(C#N)cc1S(=O)(=O)N(Cc1ccccc1)Cc1ccccc1 [Compound 17] | – | – | – | – | – | IC50 [2, 8]: > 64.6 µM; microsomal CLint at 0.5 μM ([4]; pH 7.4, Microsome Clint Human): 304 µL/min/mg; chromatographic logD [5, 10]: 4.3; IC50 [3, 9]: 0.437 µM |
| COc1ccc(F)cc1S(=O)(=O)N(Cc1ccccc1)Cc1ccccc1 [Compound 18] | – | – | – | – | – | IC50 [2, 8]: > 64.6 µM; microsomal CLint at 0.5 μM ([4]; pH 7.4, Microsome Clint Human): 955 µL/min/mg; chromatographic logD [5, 10]: 4.7; IC50 [3, 9]: 1.38 µM |
| COc1ccc(Cl)cc1S(=O)(=O)N(Cc1ccccc1)Cc1ccccc1 [Compound 19] | – | – | – | – | – | IC50 [2, 8]: > 64.6 µM; microsomal CLint at 0.5 μM ([4]; pH 7.4, Microsome Clint Human): 407 µL/min/mg; microsomal CLint at 0.5 μM [6]: 1350 µL/min/mg; IC50 [3, 9]: 1.38 µM |
| COc1ccc(CN2CCOCC2)cc1S(=O)(=O)N(Cc1ccc(F)cc1)Cc1ccc(F)cc1 [Compound 24] | – | – | – | – | – | IC50 [2, 8]: > 64.6 µM; microsomal CLint at 0.5 h, 0.5 µM ([4]; pH 7.4, Microsome Clint Human): 49.4 µL/min/mg; microsomal CLint at 0.5 μM [6]: 3200 µL/min/mg; IC50 [3, 9]: 0.525 µM |
| COc1ccc(OC)c(S(=O)(=O)N(Cc2ccc(F)cc2)Cc2ccc(F)cc2)c1 [Compound 32] | – | – | – | – | – | IC50 [2, 8]: > 64.6 µM; chromatographic logD [5, 10]: 4.7; IC50 [3, 9]: 0.537 µM |
| COCCN(Cc1ccccc1)S(=O)(=O)c1cc(OC)ccc1OC [Compound 39] | – | – | – | – | – | IC50 [2, 8]: > 64.6 µM; microsomal CLint at 0.5 μM ([4]; pH 7.4, Microsome Clint,u Human, Table 2): 253 µL/min/mg; chromatographic logD [5, 10]: 3.5; IC50 [3, 9]: 2.09 µM |
| COc1ccc(Cl)cc1S(=O)(=O)N(CC(=O)N1CCN(C)CC1)Cc1ccccc1 [DNDI0003363387] | > 32 µM | > 32 µM | > 32 µM | > 32 µM | > 32 µM | – |
| COc1ccc(OC)c(S(=O)(=O)N2CCCC2c2ccc(F)cc2)c1 (stereo not shown) [DNDI0003363388] | > 32 µM | > 32 µM | 9.55 µM | 9.59 µM | 25.6 µM | – |
| COc1ccc(Cl)cc1S(=O)(=O)N(CC(=O)N1CCCC1)Cc1ccccc1 [DNDI0003363389] | > 32 µM | > 32 µM | 15.5 µM | 15.5 µM | > 32 µM | – |
| CC(=O)Nc1ccc(Cl)c(C(=O)NC(Cn2ccnc2)c2ccccc2)c1 (stereo not shown) [DNDI0003363391] | > 55.4 µM | > 55.4 µM | > 55.4 µM | > 55.4 µM | > 55.4 µM | – |
| O=C(NC(Cn1ccnc1)c1ccccc1)c1ccc(-n2cnnn2)cc1 (stereo not shown) [DNDI0003363392] | > 55.4 µM | > 55.4 µM | > 49.4 µM | > 49.4 µM | 9 µM | – |
| COc1ccc(C)cc1S(=O)(=O)N(CC(=O)N1CCOCC1)Cc1ccccc1 [DNDI0003363393] | > 55.4 µM | > 55.4 µM | 19.1 µM | 18.9 µM | > 55.4 µM | – |
| CCN(CC)C(=O)CN(Cc1ccccc1)S(=O)(=O)c1ccc(OC)c(OC)c1 [DNDI0003363394] | > 55.4 µM | > 55.4 µM | 32.4 µM | 32.1 µM | > 55.4 µM | – |
| COc1ccc(C)cc1S(=O)(=O)N(CC(=O)Nc1ccccc1)Cc1ccccc1 [DNDI0003363395] | > 55.4 µM | > 55.4 µM | > 49.4 µM | > 49.4 µM | 19.8 µM | – |
| COc1ccc(C)cc1S(=O)(=O)N(CC(=O)NCc1ccc(Cl)cc1)Cc1ccccc1 [DNDI0003363396] | > 55.4 µM | > 55.4 µM | 25.7 µM | 25.7 µM | 6.02 µM | – |
| COc1ccc(C)cc1S(=O)(=O)N(CC(N)=O)Cc1ccccc1 [DNDI0003363397] | > 55.4 µM | > 55.4 µM | > 55.4 µM | > 55.4 µM | > 55.4 µM | – |

| Structure (SMILES) | IC50 ([2]; read-out: PMM IC50) | CC50 at 3 days [7] | IC50 [3, 11] | IC50 [3, 12] | IC50 [1, 13] | other results |
| --- | --- | --- | --- | --- | --- | --- |
| COc1ccc(OC)c(S(=O)(=O)N2CCc3ccccc3C2)c1 [DNDI0003363398] | > 55.4 µM | > 55.4 µM | > 55.4 µM | > 55.4 µM | > 55.4 µM | – |
| COc1ccc(C)cc1S(=O)(=O)N(CC(=O)O)Cc1ccccc1 [DNDI0003363399] | > 55.4 µM | > 55.4 µM | > 55.4 µM | > 55.4 µM | > 55.4 µM | – |
| COc1ccc(S(=O)(=O)N(CC(=O)NC2CC2)Cc2ccccc2)cc1C [DNDI0003363400] | > 55.4 µM | > 55.4 µM | > 49.4 µM | > 49.4 µM | > 55.4 µM | – |
| O=C(COc1ccc(Cl)cc1S(=O)(=O)NCc1ccccc1)N1CCOCC1 [DNDI0003363401] | > 55.4 µM | > 55.4 µM | > 55.4 µM | > 55.4 µM | > 55.4 µM | – |
| COc1ccc(OC)c(S(=O)(=O)n2cc(C)nc2-c2ccccc2)c1 [DNDI0003363402] | > 55.4 µM | > 55.4 µM | > 55.4 µM | > 55.4 µM | > 55.4 µM | – |
| COCCNc1ccc(S(=O)(=O)N(CCOC)Cc2ccccc2)cc1 [DNDI0003366102] | > 64 µM | 38.1 µM | – | – | 34.8 µM | IC50 [3, 14]: 38.9 µM; IC50 [3, 15]: 38.6 µM |
| COc1ccc(OC)c(S(=O)(=O)N(Cc2ccccc2)C2CCN(C(C)=O)CC2)c1 [DNDI0003366132] | > 64 µM | > 64 µM | – | – | > 64 µM | chromatographic logD ([5]; pH 7.4, eLogD, experimental): 3.1; IC50 [3, 14]: > 64 µM; IC50 [3, 15]: > 64 µM |
| CN(C)CCN(Cc1ccccc1)S(=O)(=O)c1ccccc1OC(F)(F)F [DNDI0003367256] | 45.2 µM | 53.4 µM | – | – | 32 µM | IC50 [3, 14]: 8.71 µM; IC50 [3, 15]: 8.64 µM |
| O=S1(=O)c2cc(F)ccc2OCCN1Cc1ccccc1 [DNDI0003368292] | > 64 µM | > 64 µM | – | – | 48.9 µM | IC50 [3, 14]: > 64 µM; IC50 [3, 15]: > 64 µM |
| COc1ncc(C#N)cc1S(=O)(=O)N(Cc1ccc(F)cc1)Cc1ccc(F)cc1 [DNDI0003369123] | > 64 µM | > 64 µM | – | – | 8.4 µM | chromatographic logD ([5]; pH 7.4, eLogD, experimental): 4.5; IC50 [3, 14]: 7.59 µM; IC50 [3, 15]: 7.6 µM |
| COCC1COc2ccc(F)cc2S(=O)(=O)N1Cc1ccccc1 (stereo not shown) [DNDI0003369451] | > 64 µM | > 64 µM | – | – | > 64 µM | IC50 [3, 14]: > 64 µM; IC50 [3, 15]: > 64 µM |
| O=S1(=O)c2ccccc2OCC(Cc2ccccc2)N1Cc1ccccc1 (stereo not shown) [DNDI0003370081] | 45.2 µM | > 64 µM | – | – | > 64 µM | chromatographic logD ([5]; pH 7.4, eLogD, experimental): 5; IC50 [3, 14]: 33.1 µM; IC50 [3, 15]: 33.5 µM |
| O=S(=O)(c1cc(F)ccc1F)N(Cc1ccc(F)cc1)Cc1ccc(F)cc1 [DNDI0003371158] | > 64 µM | > 64 µM | – | – | > 64 µM | IC50 [3, 14]: > 64 µM; IC50 [3, 15]: > 64 µM |
| O=S(=O)(c1cc(F)ccc1F)N(Cc1ccccc1)CC(O)c1ccc(F)cc1 (stereo not shown) [DNDI0003371159] | > 64 µM | 18.7 µM | – | – | 7.27 µM | IC50 [3, 14]: 33.1 µM; IC50 [3, 15]: 33.1 µM |
| COCCN(Cc1ccccc1)S(=O)(=O)c1cc(C(=O)N2CCOCC2)ccc1OC [DNDI0003392126] | – | > 64 µM | – | – | – | IC50 ([2]; read-out: PMM IC50 (uM)): > 64 µM; IC50 [3, 14]: 43.7 µM; IC50 [3, 16]: 44 µM; IC50 [1, 17]: > 64 µM |
| COCCN(Cc1ccccc1)S(=O)(=O)c1cc(C(=O)N2CCNCC2)ccc1OC [DNDI0003392127] | – | > 64 µM | – | – | – | IC50 ([2]; read-out: PMM IC50 (uM)): > 64 µM; IC50 [3, 14]: 36.3 µM; IC50 [3, 16]: 35.9 µM; IC50 [1, 17]: 13.4 µM |
| COc1ccc(Cl)cc1S(=O)(=O)N(CC(=O)N1CCOCC1)Cc1ccccc1 [SCYX0001379806] | > 32 µM | > 32 µM | > 32 µM | > 32 µM | > 32 µM | – |
| CC(=O)O[C@H]1C(=O)[C@@]2(C)[C@H]([C@H](OC(=O)c3ccccc3)[C@]3(O)C[C@H](OC(=O)[C@H](O)[C@@H](NC(=O)c4ccccc4)c4ccccc4)C(C)=C1C3(C)C)[C@]1(OC(C)=O)CO[C@@H]1C[C@@H]2O [paclitaxel, reference compound] | – | < 0.01 µM | – | – | – | – |
| CC[C@]1(O)C[C@@H]2CN(CCc3c([nH]c4ccccc34)[C@@](C(=O)OC)(c3cc4c(cc3OC)N(C)[C@H]3[C@@](O)(C(=O)OC)[C@H](OC(C)=O)[C@]5(CC)C=CCN6CC[C@]43[C@@H]65)C2)C1 [vinblastine, reference compound] | – | < 0.01 µM | – | – | – | – |
